In patent publication EP0358152A1, “Diazine-substituted 1-adamantanes, process for their preparation, and their use as medicaments” (priority 1988, dated 1990):
“And” between values parts separate entries of the source, which are not always exact repeats. Identical values can stand only once.

Assays:
Influenzaviren vom Typ B = assay: Inhibitory effect on influenza viruses of type B; type: cell-based; conditions: statement in words
[1] = tested on: Subtyp H2N2 A/Singapore 1/57; type: cell-based, Influenzaviren Typ A
[2] = tested on: Influenzavirus Typ A Subtyp H1N1 A/Taiwan 1/86; type: cell-based
[3] = tested on: Subtyp H3N2 A/Philippines 2/82; type: cell-based, Influenzaviren Typ A
[4] = tested on: Subtyp H1N1 A/Brasil 11/78; type: cell-based, Influenzaviren Typ A
A/Krasnodar 101/59 = type: cell-based, Influenzaviren Typ A
Typ B B/Singapore 222/79 = type: cell-based, Influenzaviren Typ B
[5] = tested on: Subtyp H3N2 A/Hongkong 1/68; type: cell-based, Influenzaviren Typ A

CC(N)C12CC3CC(CC(C3)C1)C2.Cl (stereo not drawn) [Rimantadin, α-Methyl-1-adamantanmethylaminhydrochlorid]
Hemmwirkung gegenüber Influenzaviren vom Typ B (Influenzaviren vom Typ B): nicht spezifisch wirksam | ID₅₀ (log 10) mit Wirkstoff [1]: 2,5 log 10 | Titerreduktion (log 10) [2]: 1,5 log 10 and 1,84 log 10 | Titerreduktion (log 10) [3]: 0,17 log 10

Nc1nccc(C23CC4CC(CC(C4)C2)C3)n1 [4-(Adamant-1-yl)-2-amino-pyrimidin, 4-(Adamant-1-yl)-2-aminopyrimidin]
Titerdifferenz (log 10) [1]: 1,55 log 10 and 1,67 log 10 | Titerdifferenz (log 10) [4]: 2,8 log 10 and 2,0 log 10

Cc1cncc(C23CC4CC(CC(C4)C2)C3)n1 [6-(Adamant-1-yl)-2-methyl-pyrazin, 6-(Adamant-1-yl)-2-methylpyrazin]
ID50 mit Wirkstoff (log 10) [4]: 3,33 log 10 and 3,67 log 10 | Titerdifferenz (log 10) [4]: 1,97 log 10 and 1,66 log 10

c1cc(C23CC4CC(CC(C4)C2)C3)ncn1 [4-(Adamant-1-yl)-pyrimidin]
Titerdifferenz (log 10) [1]: 1,33 log 10 and 1,5 log 10 and 1,34 log 10 | ID50 mit Wirkstoff (log 10) [3]: 5,17 log 10

c1cnc(C23CC4CC(CC(C4)C2)C3)cn1 [2-(Adamant-1-yl)-pyrazin, 2-(Adamant-1-yl-)-pyrazin]
Titerdifferenz (log 10) [1]: 1,51 log 10 and 1,33 log 10 and 1,17 log 10 | ID50 mit Wirkstoff (log 10) [3]: 5,5 log 10 | Titerdifferenz (log 10) [3]: 0,33 log 10 and 0,83 log 10

Cc1cc(C23CC4CC(CC(C4)C2)C3)ncn1 [6-(Adamant-1-yl)-4-methyl-pyrimidin, 6-(Adamant-1-yl)-4-methylpyrimidin]
ID50 mit Wirkstoff (log 10) (A/Krasnodar 101/59): 2,5 log 10 | Titerdifferenz (log 10) (A/Krasnodar 101/59): 2,5 log 10 | ID50 mit Wirkstoff (log 10) (Typ B B/Singapore 222/79): 5,67 log 10 | Titerdifferenz (log 10) (Typ B B/Singapore 222/79): 0,66 log 10 and 0,5 log 10 | ID50 mit Wirkstoff (log 10) [4]: 3,83 log 10 and 3,33 log 10 and 3,0 log 10 | ID50 mit Wirkstoff (log 10) [5]: 3,83 log 10 | Titerdifferenz (log 10) [5]: 0,92 log 10 | ID50 mit Wirkstoff (log 10) [3]: 5,0 log 10 and 5,67 log 10
